According to patent US8338380B2, “Use of the peptide RFMWMR as a therapeutic agent” (priority 2007, dated 2012):

System: drug-resistant Mycobacterium tuberculosis
Settings: 5 micrograms per ml

Ac-RFMWMR-NH2 [Ac-Arg-Phe-Met-Trp-Met-Arg-NH2]
% inhibition: 100.0%
